# Reference: patent US9567339B2, “Primary carboxamides as BTK inhibitors” (AbbVie Inc., priority 2013, dated 2017)
# Read-outs that look alike come from different tables or passages of the source.
# Biological target: BTK, recombinant human catalytic domain (aa 393-659) (Homo sapiens (Human), UniProt Q06187)
# Assay: In vitro BTK kinase activity measured by time-resolved fluorescence resonance energy transfer (trFRET)
# Format: biochemical
# Conditions: read-out: Btk IC50
# [1] = trFRET, 0.001 mM ATP, biotin-TYR1 peptide substrate
# Chain of BTK, recombinant human catalytic domain (aa 393-659) (Q06187 393-659): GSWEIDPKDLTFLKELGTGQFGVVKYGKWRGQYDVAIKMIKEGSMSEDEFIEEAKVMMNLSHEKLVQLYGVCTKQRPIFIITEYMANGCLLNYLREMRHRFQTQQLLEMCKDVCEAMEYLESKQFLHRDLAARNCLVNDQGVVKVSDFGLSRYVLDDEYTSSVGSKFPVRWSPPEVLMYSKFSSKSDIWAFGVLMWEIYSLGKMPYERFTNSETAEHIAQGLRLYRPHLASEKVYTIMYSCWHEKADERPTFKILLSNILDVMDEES
Structure (SMILES),IC50 [1],IC50
"Cc1ccc(-c2cc3c(Nc4ccnn4C)ccc(C(N)=O)c3[nH]2)cc1 [Preparation #T.1, 4-(1-Methyl-1H-pyrazol-5-ylamino)-2-p-tolyl-1H-indole-7-carboxamide]",100 to 1000 nM,–
CC(=O)c1ccc(-c2ccc(C(N)=O)c3[nH]c(-c4ccc(C)cc4)cc23)s1 [A.8.5],100 to 1000 nM,–
Cc1c(-c2ccc(C(N)=O)c3[nH]c(-c4ccc(F)cc4)cc23)cccc1-n1cnc2ccccc2c1=O [A.12.1],< 100 nM,–
C=CC(=O)N(C)c1cccc(-c2ccc(C(N)=O)c3[nH]ccc23)c1 [E.1.5],–,< 100 nM
Cn1cc(-c2cc3c(N4CCC[C@@H](n5cnc6ccccc6c5=O)C4)ccc(C(N)=O)c3[nH]2)cn1 [O.1.16*],–,100 to 1000 nM
Cc1c(NC(=O)c2cc3c(s2)CCCC3)cccc1-c1ccc(C(N)=O)c2[nH]c(-c3cccnc3)cc12 [A.7.3],< 100 nM,–
C=CC(=O)Nc1cc(OCc2nccs2)cc(-c2ccc(C(N)=O)c3[nH]ccc23)c1 [E.1.15],–,100 to 1000 nM
Cc1c(-c2ccc(C(N)=O)c3[nH]c(-c4cnn(C[C@@H](O)CO)c4)cc23)cccc1-n1cnc2ccccc2c1=O [K.1],< 100 nM,–
Cc1c(NC(=O)c2nccs2)cccc1-c1ccc(C(N)=O)c2[nH]cc(NC(=O)COc3ccc(F)cc3)c12 [D.3.6],1000 to 10000 nM,–
C=CC(=O)Nc1cccc(-c2ccc(C(N)=O)c3[nH]c(-c4ccnc(OC)c4)cc23)c1C [A.1.13],< 100 nM,–
"C=CC(=O)Nc1cc(NCc2nccs2)cc(-c2ccc(C(N)=O)c3[nH]c(C4=CCN(S(C)(=O)=O)CC4)cc23)c1 [Example 6, 4-(3-Acrylamido-5-(thiazol-2-ylmethylamino)phenyl)-2-(1-(methylsulfonyl)-1,2,3,6-tetrahydropyridin-4-yl)-1H-indole-7-carboxamide]",< 100 nM,–
Cc1c(NC(=O)COc2ccccc2)cccc1-c1ccc(C(N)=O)c2[nH]c(C3=CCN(S(C)(=O)=O)CC3)cc12 [D.7.21],–,< 100 nM
"C=CC(=O)Nc1cccc(-c2cnc(C(N)=O)c3[nH]ccc23)c1C [Example 17, 4-(3-Acrylamido-2-methylphenyl)-1H-pyrrolo[2,3-c]pyridine-7-carboxamide]",< 100 nM,–
CC(C)(C)c1ccc(C(=O)N[C@@H]2CCCN(c3ccc(C(N)=O)c4[nH]c(-c5cccnc5)cc34)C2)cc1 [O.1.26],–,< 100 nM
C=CC(=O)Nc1cccc(-c2ccc(C(N)=O)c3[nH]ccc23)c1 [A.5.2],100 to 1000 nM,–
Cc1c(NCCO)cccc1-c1ccc(C(N)=O)c2[nH]c(C3=CCN(S(C)(=O)=O)CC3)cc12 [A.4.13],< 100 nM,–
Cc1c(-c2ccc(C(N)=O)c3[nH]c(C4=CCN(S(C)(=O)=O)CC4)cc23)cccc1-n1cnc2ccc(F)cc2c1=O [A.4.19],< 100 nM,–
"CS(=O)(=O)N1CC=C(c2cc3c(N4CCC[C@@H](N5CCc6ccccc6C5=O)C4)ccc(C(N)=O)c3[nH]2)CC1 [Example 13, (R)-2-(1-(Methylsulfonyl)-1,2,3,6-tetrahydropyridin-4-yl)-4-(3-(1-oxo-3,4-dihydroisoquinolin-2(1H)-yl)piperidin-1-yl)-1H-indole-7-carboxamide]",< 100 nM,–
"C=CC(=O)N[C@@H]1CCC[C@H](c2ccc(C(N)=O)c3[nH]ccc23)C1 (relative stereo) [Example 8, 4-(cis-3-Acrylamidocyclohexyl)-1H-indole-7-carboxamide]",< 100 nM,–
Cc1c(NC(=O)/C=C/CN2CCOCC2)cccc1-c1ccc(C(N)=O)c2[nH]ccc12 [J.1.5],–,1000 to 10000 nM
C=CC(=O)N1CC[C@@H](c2ccc(C(N)=O)c3[nH]c(C)cc23)C1 [E.9.40*],–,100 to 1000 nM
Cc1c(-c2ccc(C(N)=O)c3[nH]c(C4=CCN(C)CC4)cc23)cccc1-n1cnc2ccccc2c1=O [H.1.1],–,< 100 nM
CC#CC(=O)NCc1ccccc1-c1cc2c(-c3cccc(NC(=O)c4nccs4)c3C)ccc(C(N)=O)c2[nH]1 [D.1.1],1000 to 10000 nM,–
"Cc1c(N)cccc1-c1ccc(C(N)=O)c2[nH]c(C3=CCC(F)(F)CC3)cc12 [Example 21, 4-(3-Amino-2-methylphenyl)-2-(4,4-difluorocyclohex-1-enyl)-1H-indole-7-carboxamide]",< 100 nM,–

Structure (SMILES),IC50 [1],IC50
NC(=O)c1ccc(-c2ccn[nH]2)c2cc(-c3ccc(F)cc3)[nH]c12 [A.9.5],100 to 1000 nM,–
"C=CC(=O)N[C@H]1CCC[C@H](c2ccc(C(N)=O)c3[nH]ccc23)C1 (relative stereo) [Example 9, 4-(trans-3-Acrylamidocyclohexyl)-1H-indole-7-carboxamide]",100 to 1000 nM,–
C=CC(=O)N1CCC[C@H](c2cnc(C(N)=O)c3[nH]ccc23)C1 [E.9.52],–,100 to 1000 nM
Cc1c(NC(=O)/C=C\Cl)cccc1-c1ccc(C(N)=O)c2[nH]c(C3=CCN(S(C)(=O)=O)CC3)cc12 [D.7.17],–,< 100 nM
C=CC(=O)Nc1cccc(-c2ccc(C(N)=O)c3[nH]c(C4=CCN(S(C)(=O)=O)CC4)cc23)c1 [A.4.15],< 100 nM,–
Cc1c(NC(=O)c2cccnc2)cccc1-c1ccc(C(N)=O)c2[nH]c(C3=CCN(S(C)(=O)=O)CC3)cc12 [D.7.39],–,< 100 nM
C=CC(=O)N1CCC[C@H](c2ncc(C(N)=O)c3[nH]ccc23)C1 [E.9.33],–,100 to 1000 nM
CCOC(=O)N1CC=C(c2cc3c(-c4cccc(-n5cnc6ccccc6c5=O)c4C)ccc(C(N)=O)c3[nH]2)CC1 [E.6.2],–,< 100 nM
C=CC(=O)Nc1cccc(-c2ccc(C(N)=O)c3[nH]c(-c4cnn(CC(C)C)c4)cc23)c1C [A.1.7],< 100 nM,–
Cc1c(-c2ccc(C(N)=O)c3[nH]c(-c4cccnc4)cc23)cccc1N1Cc2ccc(F)cc2C1=O [A.7.6],< 100 nM,–
Cc1c(NC(=O)C2CCCCC2)cccc1-c1ccc(C(N)=O)c2[nH]c(C3=CCN(S(C)(=O)=O)CC3)cc12 [D.7.29],–,< 100 nM
C=C(C)C(=O)NCc1ccccc1-c1cc2c(-c3cccc(NC(=O)c4nccs4)c3C)ccc(C(N)=O)c2[nH]1 [D.1.10],1000 to 10000 nM,–
"C=CC(=O)N(CC1CCCC1)c1cccc(-c2ccc(C(N)=O)c3[nH]ccc23)c1 [E.1.34, 4-(3-(N-(cyclopentylmethyl)acrylamido)phenyl)-1H-indole-7-carboxamide]",–,1000 to 10000 nM
C=CC(=O)N[C@@H]1CC[C@@H](c2ccc(C(N)=O)c3[nH]ccc23)C1 [E.9.50],–,< 100 nM
Cc1c(NC(=O)/C=C/CN(C)C)cccc1-c1ccc(C(N)=O)c2[nH]c(C3=CCN(S(C)(=O)=O)CC3)cc12 [D.7.2],–,< 100 nM
CCNC(=O)/C=C\C(=O)Nc1cccc(-c2ccc(C(N)=O)c3[nH]ccc23)c1 [D.9.2],< 100 nM,–
C=CC(=O)N(Cc1nccs1)c1cccc(-c2ccc(C(N)=O)c3[nH]c(C4=CCN(S(C)(=O)=O)CC4)cc23)c1C [E.1.7],–,< 100 nM
C=CC(=O)Nc1cccc(-c2ccc(C(N)=O)c3[nH]c(-c4ccc(C#N)cc4)cc23)c1C [A.1.42],< 100 nM,–
C/C=C/C(=O)Nc1c[nH]c2c(C(N)=O)ccc(-c3cccc(NC(=O)c4nccs4)c3C)c12 [D.3.3],1000 to 10000 nM,–
C=C(C)C(=O)Nc1cccc(-c2ccc(C(N)=O)c3[nH]ccc23)c1C [D.8.10],1000 to 10000 nM,–
C=CC(=O)N1CCC[C@@H](c2ncc(C(N)=O)c3[nH]ccc23)C1 [E.9.32],–,< 100 nM
C=CC(=O)N1CC(N(C)c2ccc(C(N)=O)c3[nH]c([C@@H]4CCOC4)cc23)C1 [Example 5.1],–,< 100 nM
"NC(=O)c1ccc(-c2cncc(N)c2)c2cc[nH]c12 [A.5.4, 4-(5-aminopyridin-3-yl)-1H-indole-7-carboxamide]",1000 to 10000 nM,–
